We go through 19 compounds from ChEMBL document CHEMBL4373726, “Novel amides modified rupestonic acid derivatives as anti-influenza virus reagents” (Bioorg Med Chem Lett, 2019).

pIC50: −log10 of the molar value.

Series [1] in a line: Selectivity index, ratio of TC50 for cytotoxicity against dog MDCK cells to IC50 for antiviral activity against Influenza A virus H3N2 infected in dog MDCK cells. Particulars: read-out: Selectivity Index. Format: toxicity, cell-based.
Series [2] can be described thus: Cytotoxicity against MDCK cells assessed as reduction in cell viability incubated for 48 hrs. Format: cell-based, Canis lupus familiaris. The following applies: dog, read-out: TC50.
Series [3] deals with Influenza B virus. The series is described as follows: Antiviral activity against Influenza B virus infected in MDCK cells assessed as inhibition in virus-induced cytopathic effect incubated for 40 hrs. The class given is functional, organism-based.
For series [4], the system named is Influenza A virus. As to the kind of experiment: Antiviral activity against Influenza A virus H1N1 infected in dog MDCK cells assessed as inhibition in virus-induced cytopathic effect incubated for 40 hrs. The class given is functional, organism-based. Background: Protection from cytopathic effect is a common read-out in antiviral testing.
Series [5] relates to Influenza A virus H3N2. As to the kind of experiment: Antiviral activity against Influenza A virus H3N2 infected in dog MDCK cells assessed as inhibition in virus-induced cytopathic effect incubated for 40 hrs. Format: functional, organism-based.
Series [6] in a line: Selectivity index, ratio of TC50 for cytotoxicity against dog MDCK cells to IC50 for antiviral activity against Influenza B virus infected in dog MDCK cells. The class given is toxicity, cell-based. The following applies: read-out: Selectivity Index.
Series [7] can be described thus: Selectivity index, ratio of TC50 for cytotoxicity against dog MDCK cells to IC50 for antiviral activity against Influenza A virus H1N1 infected in dog MDCK cells. The class given is toxicity, cell-based. Particulars: read-out: Selectivity Index.

Regarding `C=C(C(=O)OC)[C@@H]1CC[C@H](C)[C@H]2C(=C(C)C(=O)[C@H]2NC(=O)C(C)CCl)C1` (some centres not stated), the selectivity ratio in series [1] stood at 1.7. In addition, in series [2], the CC50 at 48 h worked out at 735 µM. In addition, the pIC50 (as a rule, the IC50 on a negative log10 scale, so that one unit is a factor of ten) was less than 3.37 in series [3], less than 3.37 in series [4] and 3.37 in series [5].
On to `CCOC(=O)C1=C[C@@H](OC(CC)CC)[C@H](NC(C)=O)[C@@H](N)C1` [OSELTAMIVIR], for which the selectivity ratio in series [1] is 132. Besides, in series [2], the CC50 at 48 h amounted to 1410 µM. For the same compound, the pIC50 in series [3] was less than 3.31; in series [4] it was 4.81; in series [5], 4.95.
Take `C=C(C(=O)OC)[C@@H]1CC[C@H](C)[C@H]2C(=C(C)C(=O)[C@H]2NC(=O)CC#N)C1`: the selectivity ratio in series [6] and in series [7] was 3 in each case. In addition, the CC50 at 48 h in series [2] was found to be 1450 µM. Also, the pIC50 was 3.31 in series [3], 3.31 in series [4] and less than 3.31 in series [5].
`C=C(C(=O)OC)[C@@H]1CC[C@H](C)[C@H]2C(=C(C)C(=O)[C@H]2NC(C)=O)C1`: the results for the selectivity ratio in series [6] and in series [7] were 1.7 and 4.9, respectively. Besides, the CC50 at 48 h in series [2] stood at 753 µM. The pIC50 in series [3] was 3.28; in series [4], 3.76; in series [5], less than 3.76.
Consider `C=C(C(=O)Nc1ccc2c(c1)COB2O)[C@@H]1CC[C@H](C)[C@@H]2CC(=O)C(C)=C2C1`, for which the CC50 at 48 h in series [2] was determined as 254 µM. In addition, the pIC50 in series [3], in series [4] and in series [5] was less than 4.31 each time.
As for `C=C(C(=O)OC)[C@@H]1CC[C@H](C)[C@H]2C(=C(C)C(=O)[C@H]2NC(=O)c2ccccc2)C1`, the results for the selectivity ratio in series [6] and in series [7] were 1.9 and 2.2, respectively. In addition, in series [2], the CC50 at 48 h worked out at 84.3 µM. The pIC50 is 4.36 in series [3], 4.42 in series [4] and less than 4.78 in series [5].
Regarding `C=C(C(=O)NCc1ccc(B(O)O)cc1)[C@@H]1CC[C@H](C)[C@@H]2CC(=O)C(C)=C2C1`, the selectivity ratio in series [6] came to 3.3; in series [1], 4; in series [7], 3.3. Besides, the CC50 at 48 h in series [2] was 262 µM. In addition, the results for the negative logarithm of the IC50 (pIC50) in series [3], in series [4] and in series [5] were 4.10, 4.07 and 4.18, respectively.
In the case of `C=C(C(=O)Nc1ncc(B(O)O)cn1)[C@@H]1CC[C@H](C)[C@@H]2CC(=O)C(C)=C2C1`, the selectivity ratio in series [6] came out at 2.4; in series [1], 3.6; in series [7] it was 3.3. Besides, the CC50 at 48 h in series [2] came to 315 µM. For the same compound, the values for the pIC50 in series [3], in series [4] and in series [5] were 3.87, 4.02 and 4.06, respectively.
For the compound `C=C(C(=O)O)[C@@H]1CC[C@H](C)[C@@H]2CC(=O)C(C)=C2C1` [PECHUELOIC ACID], the selectivity ratio in series [6] turned out to be 10; in series [1], 4.3; in series [7] it was 4.3.
Turning to `C=C(C(=O)OC)[C@@H]1CC[C@H](C)[C@H]2C(=C(C)C(=O)[C@H]2NS(=O)(=O)c2ccc(F)cc2)C1`, the selectivity ratio in series [6] was determined as 1.7; in series [1], 2.5; in series [7] it was 3. For the same compound, the CC50 at 48 h in series [2] was found to be 25.1 µM. The values for the pIC50 in series [3], in series [4] and in series [5] were 4.83, 5.09 and 4.99, respectively.
For the compound `C=C(C(=O)OC)[C@@H]1CC[C@H](C)[C@H]2C(=C(C)C(=O)[C@H]2NC(=O)c2ccc(B(O)O)cc2)C1`, in series [2], the CC50 at 48 h amounted to 188 µM. Moreover, the selectivity ratio in series [7] came to 4.3. Further, the pIC50 in series [3] was less than 4.35; in series [4], 4.35; in series [5], less than 4.35.
Consider `C=C(C(=O)Nc1cccc(B(O)O)c1)[C@@H]1CC[C@H](C)[C@@H]2CC(=O)C(C)=C2C1`, for which the figures for the selectivity ratio in series [6], in series [1] and in series [7] were 4.3, 5.3 and 4.9, respectively. For the same compound, the CC50 at 48 h in series [2] came out at 632 µM. For the same compound, the pIC50 is 3.83 in series [3], 3.89 in series [4] and 3.84 in series [5].
In the case of `C=C(C(=O)Nc1ccc(B(O)O)cc1)[C@@H]1CC[C@H](C)[C@@H]2CC(=O)C(C)=C2C1`, in series [2], the CC50 at 48 h turned out to be 939 µM. For the same compound, the pIC50 in series [3], in series [4] and in series [5] was less than 3.35 in each case.
For the compound `NC(=O)c1ncn([C@@H]2O[C@H](CO)[C@@H](O)[C@H]2O)n1` [RIBAVIRIN], the selectivity ratio stood at 714 in series [6], 476 in series [1] and 363 in series [7]. Moreover, the pIC50 is 5.10 in series [3], 5.07 in series [4] and 4.97 in series [5].
In the case of `C=C(C(=O)OC)[C@@H]1CC[C@H](C)[C@H]2C(=C(C)C(=O)[C@H]2NS(=O)(=O)c2ccc(C)cc2)C1`, the selectivity ratio in series [6] and in series [7] was 4.3 each time. Also, the CC50 at 48 h in series [2] turned out to be 61.1 µM. Further, the pIC50 was 4.85 in series [3], 4.84 in series [4] and less than 4.83 in series [5].
As to `C=C(C(=O)OC)[C@@H]1CC[C@H](C)[C@@H]2CC(=O)C(C)=C2C1`, the selectivity ratio in series [7] was found to be 3. The negative logarithm of the IC50 (pIC50) in series [3] was less than 4.15; in series [4] it was 4.14; in series [5] it was less than 4.14.
Take `C=C(C(=O)OC)[C@@H]1CC[C@H](C)[C@H]2C(=C(C)C(=O)[C@H]2NS(C)(=O)=O)C1`: the selectivity ratio in series [6] is 5.6; in series [1] it was 4.3; in series [7], 5.6. Moreover, the CC50 at 48 h in series [2] stood at 226 µM. The results for the pIC50 in series [3], in series [4] and in series [5] were 4.39, 4.39 and 4.28, respectively.
Consider `C=C(C(=O)NCc1cccc(B(O)O)c1)[C@@H]1CC[C@H](C)[C@@H]2CC(=O)C(C)=C2C1`, for which the selectivity ratio in series [6] was found to be 2.8; in series [1], 4; in series [7], 6. For the same compound, the CC50 at 48 h in series [2] was 252 µM. The results for the pIC50 in series [3], in series [4] and in series [5] were 4.04, 4.36 and 4.20, respectively.
Consider `C=C(C(=O)OC)[C@@H]1CC[C@H](C)[C@H]2C(=C(C)C(=O)[C@H]2NC(=O)CNC(=O)c2ccccc2)C1`, for which the CC50 at 48 h in series [2] was 488 µM. For the same compound, the selectivity ratio in series [7] is 4.9. Also, the pIC50 in series [3] is less than 3.94; in series [4], 4.00; in series [5], less than 3.94.
